Measured values taken from ChEMBL document CHEMBL3885881, “DrugMatrix”.

Species: Rattus norvegicus
Assay: DrugMatrix - Regimen: Daily Repeat
Assay type: toxicity, organism-based, Sprague-Dawley
Design: regimen Daily Repeat, gender Male, age 6-8 weeks
Conditions: in vivo, po, route oral GAVAGE, vehicle .5 % CMC; for ABSOLUTE BASOPHIL / ABSOLUTE EOSINOPHIL / ABSOLUTE LYMPHOCYTE / ABSOLUTE MONOCYTE / ABSOLUTE SEGMENTED NEUTROPHIL / BASOPHIL / EOSINOPHIL / ERYTHROCYTE COUNT / HEMATOCRIT / HEMOGLOBIN / LEUKOCYTE COUNT / LYMPHOCYTE / MEAN CORPUSCULAR HEMOGLOBIN / MEAN CORPUSCULAR HEMOGLOBIN CONCENTRATION / MEAN CORPUSCULAR VOLUME / MONOCYTE / NEUTROPHIL / NUCLEATED RED BLOOD CELLS / PLATELET COUNT: tissue Blood; for ALANINE AMINOTRANSFERASE / ALBUMIN / ASPARTATE AMINOTRANSFERASE / BLOOD UREA NITROGEN / CARBON DIOXIDE / CHLORIDE / CHOLESTEROL / CREATINE PHOSPHOKINASE / CREATININE / GLUCOSE / LACTATE DEHYDROGENASE / LIPASE / POTASSIUM / SODIUM / TOTAL BILIRUBIN / TOTAL PROTEIN / URIC ACID: tissue Plasma
[1] = 47 mg/kg, 72 h, dose level Low, time 3 day
[2] = 47 mg/kg, 120 h, dose level Low, time 5 day
[3] = 500 mg/kg, 72 h, dose level High, time 3 day
[4] = 500 mg/kg, 120 h, dose level High, time 5 day

## OCCOCCN1CCN(C2=Nc3ccccc3Sc3ccccc32)CC1 [QUETIAPINE]
[1]
  ABSOLUTE BASOPHIL: 0 CELLS/uL
  ABSOLUTE EOSINOPHIL: 0 CELLS/uL
  ABSOLUTE LYMPHOCYTE: 7521.33 CELLS/uL
  ABSOLUTE MONOCYTE: 22.33 CELLS/uL
  ABSOLUTE SEGMENTED NEUTROPHIL: 789.67 CELLS/uL
  BASOPHIL: 0%
  EOSINOPHIL: 0%
  ERYTHROCYTE COUNT: 5.57 x10E6/uL
  HEMATOCRIT: 34.3%
  HEMOGLOBIN: 13.87 G/DL
  LEUKOCYTE COUNT: 8.33 x10E3/uL
  LYMPHOCYTE: 90.33%
  MEAN CORPUSCULAR HEMOGLOBIN: 24.93 pg
  MEAN CORPUSCULAR HEMOGLOBIN CONCENTRATION: 40.43 G/DL
  MEAN CORPUSCULAR VOLUME: 61.7 fL
  MONOCYTE: 0.33%
  NEUTROPHIL: 9.33%
  NUCLEATED RED BLOOD CELLS: 0.33 /100WBC
  PLATELET COUNT: 1115.67 x10E3/uL
  ALANINE AMINOTRANSFERASE: 48.33 u/L
  ALBUMIN: 4.63 G/DL
  ASPARTATE AMINOTRANSFERASE: 64.67 u/L
  BLOOD UREA NITROGEN: 15.33 mg/dL
  CARBON DIOXIDE: 31 mmol/L
  CHLORIDE: 101 MEQ/L
  CHOLESTEROL: 78.33 mg/dL
  CREATINE PHOSPHOKINASE: 126.33 u/L
  CREATININE: 0.17 mg/dL
  GLUCOSE: 143.33 mg/dL
  LACTATE DEHYDROGENASE: 116.33 u/L
  LIPASE: 12 u/L
  POTASSIUM: 6.23 MEQ/L
  SODIUM: 148.9 MEQ/L
  TOTAL BILIRUBIN: 0.2 mg/dL
  TOTAL PROTEIN: 6.03 G/DL
  URIC ACID: 1.03 mg/dL
[2]
  ABSOLUTE BASOPHIL: 0 CELLS/uL
  ABSOLUTE EOSINOPHIL: 0 CELLS/uL
  ABSOLUTE LYMPHOCYTE: 13853.67 CELLS/uL
  ABSOLUTE MONOCYTE: 281 CELLS/uL
  ABSOLUTE SEGMENTED NEUTROPHIL: 1032 CELLS/uL
  BASOPHIL: 0%
  EOSINOPHIL: 0%
  ERYTHROCYTE COUNT: 6.08 x10E6/uL
  HEMATOCRIT: 38.03%
  HEMOGLOBIN: 15.07 G/DL
  LEUKOCYTE COUNT: 15.17 x10E3/uL
  LYMPHOCYTE: 91.33%
  MEAN CORPUSCULAR HEMOGLOBIN: 24.83 pg
  MEAN CORPUSCULAR HEMOGLOBIN CONCENTRATION: 39.6 G/DL
  MEAN CORPUSCULAR VOLUME: 62.6 fL
  MONOCYTE: 2%
  NEUTROPHIL: 6.67%
  NUCLEATED RED BLOOD CELLS: 0 /100WBC
  PLATELET COUNT: 1335.33 x10E3/uL
  ALANINE AMINOTRANSFERASE: 39.33 u/L
  ALBUMIN: 4.63 G/DL
  ASPARTATE AMINOTRANSFERASE: 90.67 u/L
  BLOOD UREA NITROGEN: 20 mg/dL
  CARBON DIOXIDE: 25 mmol/L
  CHLORIDE: 96.67 MEQ/L
  CHOLESTEROL: 61.33 mg/dL
  CREATINE PHOSPHOKINASE: 403.67 u/L
  CREATININE: 0.22 mg/dL
  GLUCOSE: 148 mg/dL
  LACTATE DEHYDROGENASE: 287 u/L
  LIPASE: 9.33 u/L
  POTASSIUM: 7.45 MEQ/L
  SODIUM: 142.07 MEQ/L
  TOTAL BILIRUBIN: 0.13 mg/dL
  TOTAL PROTEIN: 6.67 G/DL
  URIC ACID: 2.17 mg/dL
[3]
  ABSOLUTE BASOPHIL: 0 CELLS/uL
  ABSOLUTE EOSINOPHIL: 0 CELLS/uL
  ABSOLUTE LYMPHOCYTE: 9655.67 CELLS/uL
  ABSOLUTE MONOCYTE: 233.67 CELLS/uL
  ABSOLUTE SEGMENTED NEUTROPHIL: 577.33 CELLS/uL
  BASOPHIL: 0%
  EOSINOPHIL: 0%
  ERYTHROCYTE COUNT: 5.61 x10E6/uL
  HEMATOCRIT: 34.93%
  HEMOGLOBIN: 14.17 G/DL
  LEUKOCYTE COUNT: 10.47 x10E3/uL
  LYMPHOCYTE: 92.67%
  MEAN CORPUSCULAR HEMOGLOBIN: 25.27 pg
  MEAN CORPUSCULAR HEMOGLOBIN CONCENTRATION: 40.53 G/DL
  MEAN CORPUSCULAR VOLUME: 62.27 fL
  MONOCYTE: 2%
  NEUTROPHIL: 5.33%
  NUCLEATED RED BLOOD CELLS: 0 /100WBC
  PLATELET COUNT: 1122.67 x10E3/uL
  ALANINE AMINOTRANSFERASE: 50.33 u/L
  ALBUMIN: 4.3 G/DL
  ASPARTATE AMINOTRANSFERASE: 75 u/L
  BLOOD UREA NITROGEN: 16.67 mg/dL
  CARBON DIOXIDE: 26.33 mmol/L
  CHOLESTEROL: 46.67 mg/dL
  CREATINE PHOSPHOKINASE: 448 u/L
  CREATININE: 0.21 mg/dL
  GLUCOSE: 138 mg/dL
  LACTATE DEHYDROGENASE: 232.33 u/L
  LIPASE: 8 u/L
  POTASSIUM: 6.14 MEQ/L
  SODIUM: 143.73 MEQ/L
  TOTAL BILIRUBIN: 0.23 mg/dL
  TOTAL PROTEIN: 5.57 G/DL
  URIC ACID: 1.33 mg/dL
[4]
  ABSOLUTE BASOPHIL: 0 CELLS/uL
  ABSOLUTE EOSINOPHIL: 0 CELLS/uL
  ABSOLUTE LYMPHOCYTE: 15536 CELLS/uL
  ABSOLUTE MONOCYTE: 318.67 CELLS/uL
  ABSOLUTE SEGMENTED NEUTROPHIL: 1612 CELLS/uL
  BASOPHIL: 0%
  EOSINOPHIL: 0%
  ERYTHROCYTE COUNT: 6.23 x10E6/uL
  HEMATOCRIT: 37.83%
  HEMOGLOBIN: 15.17 G/DL
  LEUKOCYTE COUNT: 17.47 x10E3/uL
  LYMPHOCYTE: 89%
  MEAN CORPUSCULAR HEMOGLOBIN: 24.33 pg
  MEAN CORPUSCULAR HEMOGLOBIN CONCENTRATION: 40.1 G/DL
  MEAN CORPUSCULAR VOLUME: 60.67 fL
  MONOCYTE: 1.67%
  NEUTROPHIL: 9.33%
  NUCLEATED RED BLOOD CELLS: 0 /100WBC
  PLATELET COUNT: 1152.33 x10E3/uL
  ALANINE AMINOTRANSFERASE: 50.33 u/L
  ALBUMIN: 4.37 G/DL
  ASPARTATE AMINOTRANSFERASE: 71 u/L
  BLOOD UREA NITROGEN: 20 mg/dL
  CARBON DIOXIDE: 25 mmol/L
  CHLORIDE: 103 MEQ/L
  CHOLESTEROL: 56.67 mg/dL
  CREATINE PHOSPHOKINASE: 184.33 u/L
  CREATININE: 0.29 mg/dL
  GLUCOSE: 154 mg/dL
  LACTATE DEHYDROGENASE: 150.67 u/L
  LIPASE: 8.67 u/L
  POTASSIUM: 6.89 MEQ/L
  SODIUM: 145 MEQ/L
  TOTAL BILIRUBIN: 0.2 mg/dL
  TOTAL PROTEIN: 6.13 G/DL
  URIC ACID: 2.13 mg/dL
